Results as given in patent US12226375B1, “Method of treatment and selection of patients benefiting from agomelatine based on EEG measurements” (Alto Neuroscience, Inc., priority 2023, dated 2025).

Key:
[1] = test system: patients with major depressive disorder; assay: Open-label trials of adjunctive agomelatine 25 mg at bedtime in MDD (NCT05118750, NCT05157945): MADRS change by EEG-predicted response; format: in vivo, human
Procedure: The inventors conducted two parallel open-label clinical trials of agomelatine at 25 mg once at bedtime in patients with major depressive disorder (NCT05118750 and NCT05157945, whose data was pooled in these analyses). […] Patients were evaluated over the course of eight weeks of treatment.
EEG data were collected at rest (encompassing both eyes open and eyes closed conditions) prior to treatment using a 19-channel EEG system covering the conventional 10-20 electrode locations. A total of 107 patients with moderate to severe depression (MADRS≥20 and PHQ-9≥10) had EEG data (107 with eyes open (REO) EEG, 105 with eyes closed (REC) EEG). Quality control assessments were conducted, yielding 105 REO patient datasets and 103 REC patient datasets. […] The training dataset consisted of 60 REO patient datasets and 60 REC patient datasets. The holdout set consisted of 49 REO patient datasets and 46 REC patient datasets.
In order to compile these individual signals into a single EEG composite entropy model for prediction of treatment outcome, the inventors conducted 10-fold cross-validated machine learning using elastic net regularization against an outcome of high versus low response to agomelatine. […]
The Cohen's d effect sizes at these weeks are all >0.4, indicating a substantial effect size for the prediction, especially considering that the meta-analytically calculated all-comer (i.e., unselected depression patients) effect size for the difference in treatment response to agomelatine (as monotherapy) versus placebo is d=0.26 (Cipriani et al., Lancet., 2018, 391 (10128): 1357-1366, PMID: 29477251).
Given the approximate 50% prevalence of positivity on the EEG machine learning model, one can estimate the agomelatine-placebo difference in EEG-predicted agomelatine responders by adding the all-comer effect size (d=0.26) to the enrichment in EEG-predicted responders over the all-comer population. This enrichment is calculated by halving the effect size between EEG-predicted responders and non-responders, since the average of these two groups is the all-comer population. […]

[2] = test system: unselected depression patients; details: meta-analytically calculated; cited from earlier work
sleep measures = details: in contrast to an SSRI which did not change these measures; cited from earlier work
circadian rhythm = details: due to melatonergic agonism; cited from earlier work

Row | SMILES | Cohen's d effect size, predicted responders vs non-responders, change in MADRS scores ([1]; EEG sample entropy machine learning model, cross-validation left-out data of training dataset, all weeks (FIG. 2A)) | Cohen's d, predicted agomelatine responders versus non-responders, observed change in MADRS scores ([1]; EEG sample entropy model, holdout dataset, weeks 4, 6 and 8 (FIG. 2B)) | MADRS change, high vs low Pz low-gamma sample entropy patients ([1]; Pz electrode, 30-40 Hz, z≥0.27, full study sample, all weeks (FIG. 2C)) | all-comer effect size d, treatment response to agomelatine (as monotherapy) versus placebo [2] | sleep measures assessed using actigraphic measurements (sleep measures) | effect on circadian rhythm (circadian rhythm)
1 | COc1ccc2cccc(CCNC(C)=O)c2c1 [agomelatine, N-[2-(7-methoxynaphthalen-1-yl)ethyl]acetamide] | > 0.4 | > 0.4 | strong and statistically significant prediction of treatment outcome across all weeks | 0.26 | improve sleep measures | phase advance circadian rhythm
2 | COc1ccc2[nH]cc(CCNC(C)=O)c2c1 [melatonin] | – | – | – | – | – | phase advance circadian rhythm
